Test results reported in US9695152B2, “3,4-dihydro-2H-isoquinoline-1-one and 2,3-dihydro-isoindol-1-one compounds” (Hoffmann-La Roche Inc., priority 2013, dated 2017).

Key:
[1] = target: CYP11B2 (Homo sapiens (Human), UniProt P19099); test: G-402 cellular enzyme assay, human CYP11B2 (aldosterone release, HTRF); type: cell-based; details: G-402 cells expressing human CYP11B2, 1 μM Deoxycorticosterone
From the text: (§1) Herein we identified the use of the G-402 cell line as a host cell to ectopically express (transiently or stably) enzymes of the CYP11 family. Specifically we developed stable G-402 cells expressing ectopically human CYP11B1, human CYP11B2, human CYP11A1, cynmolgus CYP11B1 or cynomolgus CYP11B2 enzyme activity. Importantly the identified cell line G-402 expresses co-factors (adrenodoxin and adrenodoxin reductase) important for the activity of the CYP11 family and no relevant enzyme activity of the CYP11 family (in comparison to H295R cells) was detected in these cells. Therefore the G-402 cell line is uniquely suited as a host cell for the ectopic expression of enzymes from the CYP11 family.
(§2) G-402 cells can be obtained from ATCC (CRL-1440) and were originally derived from a renal leiomyoblastoma.
(§3) The expression plasmids contains the ORF for either human/cyno CYP11B1 or CYP11B2 under the control of a suitable promoter (CMV-promoter) and a suitable resistance marker (neomycin). Using standard techniques the expression plasmid is transfected into G-402 cells and these cells are then selected for expressing the given resistance markers. Individual cell-clones are then selected and assessed for displaying the desired enzymatic activity using 11-Deoxycorticosterone (Cyp11B2) or 11-Deoxycortisol (Cyp11B1) as a substrate.
(§4) G-402 cells expressing CYP11 constructs were established as described above and maintained in McCoy's 5a Medium Modified, ATCC Catalog No. 30-2007 containing 10% FCS and 400 μg/ml G418 (Geneticin) at 37° C. under an atmosphere of 5% CO2/95% air. Cellular enzyme assays were performed in DMEM/F12 medium containing 2.5% charcoal treated FCS and appropriate concentration of substrate (0.3-10 uM 11-Deoxycorticosterone, 11-Deoxycortisol or Corticosterone). For assaying enzymatic activity, cells were plated onto 96 well plates and incubated for 16 h. An aliquot of the supernatant is then transferred and analyzed for the concentration of the expected product (Aldosterone for CYP11B2; Cortisol for CYP11B1). The concentrations of these steroids can be determined using HTRF assays from CisBio analyzing either Aldosterone or Cortisol.
(§5) Inhibition of the release of produced steroids can be used as a measure of the respective enzyme inhibition by test compounds added during the cellular enzyme assay. The dose dependent inhibition of enzymatic activity by a compound is calculated by means of plotting added inhibitor concentrations (x-axes) vs. measured steroid/product level (y-axes). The inhibition is then calculated by fitting the following 4-parameter sigmoidal function (Morgan-Mercer-Flodin (MMF) model) to the raw data points using the least squares method:
(§6) [formula] wherein, A is the maximum y value, B is the EC50 factor determined using XLFit, C is the minimum y value and D is the slope value.
(§7) EC50 values for compounds claimed herein were tested with the G402-based assay system described. Cyp11B2 enzyme activity was tested in presence of 1 μM Deoxycorticosterone and variable amounts of inhibitors; Cyp11B1 enzyme activity was tested in presence of 1 μM Deoxycortisol and variable amounts of inhibitors.

[2] = target: human CYP11B1 (Homo sapiens (Human), UniProt P15538); test: G-402 cellular enzyme assay, human CYP11B1 (cortisol release, HTRF); type: cell-based; details: G-402 cells expressing human CYP11B1, 1 μM Deoxycortisol
From the text: as §1, §2, §3, §4, §5, §6, §7

CYP11B2, sequence (P19099 25-503): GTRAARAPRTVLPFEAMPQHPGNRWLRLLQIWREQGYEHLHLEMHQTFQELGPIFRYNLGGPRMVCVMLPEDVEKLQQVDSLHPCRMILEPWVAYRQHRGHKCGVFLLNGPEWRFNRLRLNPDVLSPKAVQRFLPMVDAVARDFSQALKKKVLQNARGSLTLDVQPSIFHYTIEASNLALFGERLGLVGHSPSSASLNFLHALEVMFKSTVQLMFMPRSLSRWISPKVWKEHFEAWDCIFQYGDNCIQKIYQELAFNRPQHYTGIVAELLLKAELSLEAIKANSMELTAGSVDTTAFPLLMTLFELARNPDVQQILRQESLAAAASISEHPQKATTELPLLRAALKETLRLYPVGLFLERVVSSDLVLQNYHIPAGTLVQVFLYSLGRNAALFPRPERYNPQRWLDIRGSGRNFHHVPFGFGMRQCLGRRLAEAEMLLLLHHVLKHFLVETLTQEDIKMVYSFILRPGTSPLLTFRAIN
human CYP11B1, sequence (P15538 25-503): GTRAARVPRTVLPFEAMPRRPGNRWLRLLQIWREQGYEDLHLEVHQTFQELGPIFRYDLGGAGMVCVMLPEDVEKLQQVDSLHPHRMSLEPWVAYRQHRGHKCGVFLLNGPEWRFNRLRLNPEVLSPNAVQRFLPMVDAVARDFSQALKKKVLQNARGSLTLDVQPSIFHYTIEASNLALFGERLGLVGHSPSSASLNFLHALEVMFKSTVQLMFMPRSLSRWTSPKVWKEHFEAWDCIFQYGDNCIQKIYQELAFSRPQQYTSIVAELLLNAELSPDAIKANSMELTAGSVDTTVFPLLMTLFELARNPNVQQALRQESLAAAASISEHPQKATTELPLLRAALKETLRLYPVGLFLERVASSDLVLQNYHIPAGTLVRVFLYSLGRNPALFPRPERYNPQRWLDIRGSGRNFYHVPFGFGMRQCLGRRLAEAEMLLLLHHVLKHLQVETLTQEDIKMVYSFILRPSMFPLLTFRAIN

Row | Structure (SMILES) | EC50 [1] [µM] | EC50 [2] [µM]
1 | Cn1ccnc1C(=O)N1CCC(Nc2cncc(N3C(=O)c4ccc(C#N)cc4C3(C)C)c2)CC1 [Example 41, 3,3-Dimethyl-2-[5-[[1-(1-methylimidazole-2-carbonyl)-4-piperidyl]amino]-3-pyridyl]-1-oxo-isoindoline-5-carbonitrile] | 0.017 | 0.19
2 | Cn1cc(C(=O)N2CCC(Nc3cncc(N4C(=O)c5ccc(C#N)cc5C4(C)C)c3)CC2)cn1 [Example 40, 3,3-Dimethyl-2-[5-[[1-(1-methylpyrazole-4-carbonyl)-4-piperidyl]amino]-3-pyridyl]-1-oxo-isoindoline-5-carbonitrile] | 0.052 | 9.57
3 | CN(c1cncc(N2C(=O)c3ccc(Cl)cc3C2(C)C)c1)C1CCN(S(=O)(=O)C2CC2)CC1 [Example 6] | 0.001 | 0.004
4 | Cn1cncc1C(=O)N1CCC(Nc2cncc(N3C(=O)c4ccc(C#N)cc4C3(C)C)c2)CC1 [Example 42, 3,3-Dimethyl-2-[5-[[1-(3-methylimidazole-4-carbonyl)-4-piperidyl]amino]-3-pyridyl]-1-oxo-isoindoline-5-carbonitrile] | 0.056 | 10.6
5 | C[C@@H]1c2cc(Cl)ccc2C(=O)N1c1cncc(NC2CN(S(=O)(=O)C3CC3)C2)c1 (single isomer, unassigned) [Example 29, (3R or 3S)-5-Chloro-2-[5-[(1-cyclopropylsulfonylazetidin-3-yl)amino]-3-pyridyl]-3-methyl-isoindolin-1-one] | 0.029 | 5.81
6 | Cn1ccnc1C(=O)N1CC(Nc2cncc(N3CCc4cc(Cl)ccc4C3=O)c2)C1 [Example 22, 6-Chloro-2-[5-[[1-(1-methylimidazole-2-carbonyl)azetidin-3-yl]amino]-3-pyridyl]-3,4-dihydroisoquinolin-1-one] | 0.023 | 2.09
7 | Cc1cncc(C(=O)N2CC(Nc3cncc(N4CCc5cc(Cl)ccc5C4=O)c3)C2)c1 [Example 18, 6-Chloro-2-[5-[[1-(5-methylpyridine-3-carbonyl)azetidin-3-yl]amino]pyridin-3-yl]-3,4-dihydroisoquinolin-1-one] | 0.009 | 1.29
8 | O=C1c2ccc(Cl)cc2CCN1c1cncc(NC2CN(S(=O)(=O)C3CC3)C2)c1 [Example 15, 6-Chloro-2-[5-[(1-cyclopropylsulfonylazetidin-3-yl)amino]pyridin-3-yl]-3,4-dihydroisoquinolin-1-one] | 0.148 | 9.56
9 | CN(c1cncc(N2C(=O)c3ccc(Cl)cc3C2(C)C)c1)C1CN(S(=O)(=O)C2CC2)C1 [Example 3, 5-Chloro-2-[5-[(1-cyclopropylsulfonylazetidin-3-yl)-methylamino]pyridin-3-yl]-3,3-dimethylisoindol-1-one] | 0.0004 | 0.018
10 | CN(c1cncc(N2C(=O)c3ccc(Cl)cc3C2(C)C)c1)C1CCN(S(=O)(=O)C2CC2)C1 (single isomer, unassigned; (-)) [Example 5, (−)-5-chloro-2-[5-[[(3S or 3R)-1-cyclopropylsulfonylpyrrolidin-3-yl]-methylamino]pyridin-3-yl]-3,3-dimethylisoindol-1-one] | 0.001 | 0.133
11 | CC1(C)c2cc(C#N)ccc2C(=O)N1c1cncc(NC2CCN(S(=O)(=O)C3CC3)CC2)c1 [Example 35, 2-[5-[(1-Cyclopropylsulfonyl-4-piperidyl)amino]-3-pyridyl]-3,3-dimethyl-1-oxo-isoindoline-5-carbonitrile] | 0.024 | 13.3

Continued, values first:

Row | EC50 [1] [µM] | EC50 [2] [µM] | Structure (SMILES)
12 | 0.055 | 3.88 | Cc1noc(C)c1C(=O)N1CC(Nc2cncc(N3CCc4cc(Cl)ccc4C3=O)c2)C1 [Example 20, 6-Chloro-2-[5-[[1-(3,5-dimethylisoxazole-4-carbonyl)azetidin-3-yl]amino]-3-pyridyl]-3,4-dihydroisoquinolin-1-one]
13 | 0.025 | 13.9 | Cn1cncc1C(=O)N1CC(Nc2cncc(N3C(=O)c4ccc(C#N)cc4C3(C)C)c2)C1 [Example 39, 3,3-Dimethyl-2-[5-[[1-(3-methylimidazole-4-carbonyl)azetidin-3-yl]amino]-3-pyridyl]-1-oxo-isoindoline-5-carbonitrile]
14 | 0.009 | 1.25 | CC1(C)c2cc(Cl)ccc2C(=O)N1c1cncc(NC2CN(S(=O)(=O)C3CC3)C2)c1 [Example 1, 5-Chloro-2-[5-[(1-cyclopropylsulfonylazetidin-3-yl)amino]pyridin-3-yl]-3,3-dimethylisoindol-1-one]
15 | 0.018 | 1.83 | CC1c2cc(Cl)ccc2C(=O)N1c1cncc(NC2CN(C(=O)c3ncccc3Cl)C2)c1 (centres unmarked) [Example 12, 5-Chloro-2-[5-[[1-(3-chloropyridine-2-carbonyl)azetidin-3-yl]amino]pyridin-3-yl]-3-methyl-3H-isoindol-1-one]
16 | 0.03 | 5.95 | Cc1noc(C)c1C(=O)N1CC(Nc2cncc(N3C(=O)c4ccc(Cl)cc4C3(C)C)c2)C1 [Example 23, 5-Chloro-2-[5-[[1-(3,5-dimethylisoxazole-4-carbonyl)azetidin-3-yl]amino]-3-pyridyl]-3,3-dimethyl-isoindolin-1-one]
17 | 0.086 | 10.9 | Cc1ccncc1C(=O)N1CC2(CC(Nc3cncc(N4C(=O)c5ccc(Cl)cc5C4(C)C)c3)C2)C1 [Example 19, 5-Chloro-3,3-dimethyl-2-[5-[[2-(4-methylpyridine-3-carbonyl)-2-azaspiro[3.3]heptan-6-yl]amino]pyridin-3-yl]isoindol-1-one]
18 | 0.02 | 1.13 | C[C@@H]1c2cc(Cl)ccc2C(=O)N1c1cncc(NC2CN(C(=O)c3ncccc3Cl)C2)c1 (single isomer, unassigned) [Example 27, (3R or 3S)-5-Chloro-2-[5-[[1-(3-chloropyridine-2-carbonyl)azetidin-3-yl]amino]-3-pyridyl]-3-methyl-isoindolin-1-one]
19 | 0.07 | 10.5 | Cc1ccncc1C(=O)N1CCC(Nc2cncc(N3C(=O)c4ccc(C#N)cc4C3(C)C)c2)CC1 [Example 37, 3,3-Dimethyl-2[5-[[1-(4-methylpyridine-3-carbonyl)-4-piperidyl]amino]-3-pyridyl]-1-oxo-isoindoline-5-carbonitrile]
20 | 0.016 | 1.91 | Cc1ccncc1C(=O)N1CC(Nc2cncc(N3C(=O)c4ccc(Cl)cc4[C@H]3C)c2)C1 (single isomer, unassigned) [Example 26, (3S or 3R)-5-Chloro-3-methyl-2-[5-[[1-(4-methylpyridine-3-carbonyl)azetidin-3-yl]amino]-3-pyridyl]isoindolin-1-one]
21 | 0.23 | > 30 | CC1(C)c2cc(Cl)ccc2C(=O)N1c1cncc(NC2CCCN(S(=O)(=O)C3CC3)C2)c1 (single isomer, unassigned; (+)) [Example 7, (+)-5-Chloro-2-[5-[[(3R or 3S)-1-cyclopropylsulfonylpiperidin-3-yl]amino]pyridin-3-yl]-3,3-dimethylisoindol-1-one]
22 | 0.005 | 0.586 | Cn1ccnc1C(=O)N1CC(Nc2cncc(N3C(=O)c4ccc(C#N)cc4C3(C)C)c2)C1 [Example 34, 3,3-Dimethyl-2[5-[[1-(1-methylimidazole-2-carbonyl)azetidin-3-yl]amino]-3-pyridyl]-1-oxo-isoindoline-5-carbonitrile]
23 | 0.031 | 29.5 | Cn1cc(C(=O)N2CC(Nc3cncc(N4C(=O)c5ccc(C#N)cc5C4(C)C)c3)C2)cn1 [Example 33]
24 | 0.01 | 5.34 | Cc1ccncc1C(=O)N1CC(Nc2cncc(N3CCc4cc(Cl)ccc4C3=O)c2)C1 [Example 16, 6-Chloro-2-[5-[[1-(4-methylpyridine-3-carbonyl)azetidin-3-yl]amino]pyridin-3-yl]-3,4-dihydroisoquinolin-1-one]
25 | 0.001 | 6.02 | Cn1cc(C(=O)N2CC(Nc3cncc(N4C(=O)c5ccc(Cl)cc5C4(C)C)c3)C2)cn1 [Example 24, 5-Chloro-3,3-dimethyl-2-[5-[[1-(1-methylpyrazole-4-carbonyl)azetidin-3-yl]amino]-3-pyridyl]isoindolin-1-one]
